Measurements from patent publication US6358885B1, “Substituted phenylheterocyclic herbicides” (Mississippi State University, priority 1992, dated 2002).

What was measured:
chickweed [1] = test: Test B preemergence/postemergence greenhouse plant response rating 0 to 10; format: in vivo, Stellaria media; details: POSTEMERGENCE, 0 to 10 scale
Procedure, shortened: (§1)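 Postemergence treatment of plants two to eighteen cm tall ran alongside preemergence treatment of planted seed, each using compound in a non-phytotoxic solvent.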

wild oat = test: as above; format: in vivo, Avena fatua; details: 0 to 10 scale
Procedure, shortened: as §1

chickweed [2] = test: Test C preemergence/postemergence greenhouse plant response rating 0 to 100; format: in vivo, Stellaria media; details: POSTEMERGENCE
Procedure, shortened: (§2)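 Compounds in non-phytotoxic solvent applied preemergence to sandy loam one day after planting, postemergence at the 1–4 leaf stage, or to ~2.5 cm floodwater over silt loam.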

wild buckwheat [3] = test: Test B preemergence/postemergence greenhouse plant response rating 0 to 10; format: in vivo, Polygonum convolvulus; details: POSTEMERGENCE, 0 to 10 scale
Procedure, shortened: as §1

lambsquarters = test: Test C preemergence/postemergence greenhouse plant response rating 0 to 100; format: in vivo, Chenopodium album; details: POSTEMERGENCE
Procedure, shortened: as §2

cotton = test: as above; format: in vivo, Gossypium hirsutum; details: POSTEMERGENCE
Procedure, shortened: as §2

velvetleaf = test: as above; format: in vivo, Abutilon theophrasti; details: POSTEMERGENCE
Procedure, shortened: as §2

sorghum = test: Test B preemergence/postemergence greenhouse plant response rating 0 to 10; format: in vivo, Sorghum bicolor; details: 0 to 10 scale
Procedure, shortened: as §1

downy brome = test: Test C preemergence/postemergence greenhouse plant response rating 0 to 100; format: in vivo, Bromus tectorum; details: POSTEMERGENCE
Procedure, shortened: as §2

giant foxtail = test: Test B preemergence/postemergence greenhouse plant response rating 0 to 10; format: in vivo, Setaria faberii; details: 0 to 10 scale
Procedure, shortened: as §1

duck salad = test: Test C flood test plant response rating 0 to 100; format: in vivo, Heteranthera limosa
Procedure, shortened: as §2

sugar beet = test: Test C preemergence/postemergence greenhouse plant response rating 0 to 100; format: in vivo, Beta vulgaris; details: POSTEMERGENCE
Procedure, shortened: as §2

soybean = test: as above; format: in vivo, Glycine max; details: POSTEMERGENCE
Procedure, shortened: as §2

ryegrass = test: as above; format: in vivo, Lolium multiflorum; details: POSTEMERGENCE
Procedure, shortened: as §2

corn = test: Test B preemergence/postemergence greenhouse plant response rating 0 to 10; format: in vivo, Zea mays; details: 0 to 10 scale
Procedure, shortened: as §1

wild buckwheat [4] = test: Test C preemergence/postemergence greenhouse plant response rating 0 to 100; format: in vivo, Polygonum convolvulus; details: POSTEMERGENCE
Procedure, shortened: as §2

barley = test: as above; format: in vivo, Hordeum vulgare; details: POSTEMERGENCE
Procedure, shortened: as §2

cheatgrass = test: Test B preemergence/postemergence greenhouse plant response rating 0 to 10; format: in vivo, Bromus secalinus; details: 0 to 10 scale
Procedure, shortened: as §1

## C=CCN1C(=O)COc2cc(F)c(-c3nn4c(c3Cl)CCCC4)cc21 [Compound 33]
Chickweed [1]; Rate 10 g/ha
  Plant response rating, Chickweed: 10
Chickweed [1]; Rate 50 g/ha
  Plant response rating, Chickweed: 10
Wild oat; POSTEMERGENCE, Rate 10 g/ha
  Plant response rating, Wild oat: 4
Wild oat; POSTEMERGENCE, Rate 50 g/ha
  Plant response rating, Wild oat: 5
Wild oat; PREEMERGENCE, Rate 50 g/ha
  Plant response rating, Wild oat: 7
Chickweed [2]; 62 g/ha, 0 to 100 scale
  Plant response rating, Chickweed: 100
Chickweed [2]; Rate 1 g/ha
  Plant response rating (0 to 100), Chickweed: 40
Chickweed [2]; Rate 4 g/ha
  Plant response rating (0 to 100), Chickweed: 60
Chickweed [2]; Rate 16 g/ha
  Plant response rating (0 to 100), Chickweed: 85
Wild buckwheat [3]; Rate 10 g/ha
  Plant response rating, Wild buckwheat: 10
Wild buckwheat [3]; Rate 50 g/ha
  Plant response rating, Wild buckwheat: 10
lambsquarters; 62 g/ha, 0 to 100 scale
  Plant response rating Lambsquarters: 100
lambsquarters; Rate 1 g/ha
  Plant response rating (0 to 100), Lambsquarters: 50
lambsquarters; Rate 4 g/ha
  Plant response rating (0 to 100), Lambsquarters: 70
lambsquarters; Rate 16 g/ha
  Plant response rating (0 to 100), Lambsquarters: 80
cotton; 62 g/ha, 0 to 100 scale
  Plant response rating, Cotton: 100
cotton; Rate 1 g/ha
  Plant response rating (0 to 100), Cotton: 100
cotton; Rate 4 g/ha
  Plant response rating (0 to 100), Cotton: 100
cotton; Rate 16 g/ha
  Plant response rating (0 to 100), Cotton: 100
velvetleaf; 62 g/ha, 0 to 100 scale
  Plant response rating, Velvetleaf: 100
velvetleaf; Rate 1 g/ha
  Plant response rating (0 to 100), Velvetleaf: 70
velvetleaf; Rate 4 g/ha
  Plant response rating (0 to 100), Velvetleaf: 100
velvetleaf; Rate 16 g/ha
  Plant response rating (0 to 100), Velvetleaf: 100
sorghum; POSTEMERGENCE, Rate 10 g/ha
  Plant response rating, Sorghum: 6
sorghum; POSTEMERGENCE, Rate 50 g/ha
  Plant response rating, Sorghum: 6
sorghum; PREEMERGENCE, Rate 50 g/ha
  Plant response rating, Sorghum: 0
Downy brome; 62 g/ha, 0 to 100 scale
  Plant response rating Downy Brome: 60
Downy brome; Rate 1 g/ha
  Plant response rating (0 to 100), Downy Brome: 30
Downy brome; Rate 4 g/ha
  Plant response rating (0 to 100), Downy Brome: 40
Downy brome; Rate 16 g/ha
  Plant response rating (0 to 100), Downy Brome: 60
Giant foxtail; POSTEMERGENCE, Rate 10 g/ha
  Plant response rating, Giant foxtail: 4
Giant foxtail; POSTEMERGENCE, Rate 50 g/ha
  Plant response rating, Giant foxtail: 4
Giant foxtail; PREEMERGENCE, Rate 10 g/ha
  Plant response rating, Giant foxtail: 2
Giant foxtail; PREEMERGENCE, Rate 50 g/ha
  Plant response rating, Giant foxtail: 7
Duck salad; POSTEMERGENCE section, flood test, Rate 1 g/ha
  Plant response rating (0 to 100), Duck salad: 0
Duck salad; POSTEMERGENCE section, flood test, Rate 4 g/ha
  Plant response rating (0 to 100), Duck salad: 0
Duck salad; Rate 16 g/ha, under POSTEMERGENCE head (flood test species)
  Plant response rating (0 to 100), Duck salad: 65
Duck salad; flood test species listed under POSTEMERGENCE, 62 g/ha, 0 to 100 scale
  Plant response rating Duck salad: 80
Sugar beet; 62 g/ha, 0 to 100 scale
  Plant response rating, Sugar beet: 100
Sugar beet; Rate 1 g/ha
  Plant response rating (0 to 100), Sugar beet: 100
Sugar beet; Rate 4 g/ha
  Plant response rating (0 to 100), Sugar beet: 100
Sugar beet; Rate 16 g/ha
  Plant response rating (0 to 100), Sugar beet: 100
soybean; 62 g/ha, 0 to 100 scale
  Plant response rating, Soybean: 100
soybean; Rate 1 g/ha
  Plant response rating (0 to 100), Soybean: 30
soybean; Rate 4 g/ha
  Plant response rating (0 to 100), Soybean: 40
soybean; Rate 16 g/ha
  Plant response rating (0 to 100), Soybean: 80
ryegrass; 62 g/ha, 0 to 100 scale
  Plant response rating Ryegrass: 60
ryegrass; Rate 1 g/ha
  Plant response rating (0 to 100), Ryegrass: 30
ryegrass; Rate 4 g/ha
  Plant response rating (0 to 100), Ryegrass: 40
ryegrass; Rate 16 g/ha
  Plant response rating (0 to 100), Ryegrass: 50
corn; POSTEMERGENCE, Rate 10 g/ha
  Plant response rating, Corn: 3
corn; POSTEMERGENCE, Rate 50 g/ha
  Plant response rating, Corn: 4
corn; PREEMERGENCE, Rate 50 g/ha
  Plant response rating, Corn: 0
Wild buckwheat [4]; 62 g/ha, 0 to 100 scale
  Plant response rating, Wild buckwheat: 100
Wild buckwheat [4]; Rate 1 g/ha
  Plant response rating (0 to 100), Wild buckwheat: 80
Wild buckwheat [4]; Rate 4 g/ha
  Plant response rating (0 to 100), Wild buckwheat: 90
barley; 62 g/ha, 0 to 100 scale
  Plant response rating Barley Igri: 60
barley; Rate 1 g/ha
  Plant response rating (0 to 100), Barley Igri: 20
barley; Rate 4 g/ha
  Plant response rating (0 to 100), Barley Igri: 40
barley; Rate 16 g/ha
  Plant response rating (0 to 100), Barley Igri: 50
cheatgrass; POSTEMERGENCE, Rate 10 g/ha
  Plant response rating, Cheatgrass: 4
cheatgrass; POSTEMERGENCE, Rate 50 g/ha
  Plant response rating, Cheatgrass: 4
cheatgrass; PREEMERGENCE, Rate 10 g/ha
  Plant response rating, Cheatgrass: 3
cheatgrass; PREEMERGENCE, Rate 50 g/ha
  Plant response rating, Cheatgrass: 6
